# Values joined by “and” are separate entries in the source; they are usually repeats but may differ in a detail not shown here. Identical values can stand only once. Like-named read-outs stand apart in the source and are kept apart here.
# Experiments:
# [1] = system: Reticulitermes santonensis; conditions: comparative values, Holz als Roh- und Werkstoff 35 (1977) 233-237, table 10; cited from earlier work
# [2] = system: worker termites (Coptotermes formosanus); experiment: Formicidal test: treated filter paper in petri dish, termite mortality; assay type: in vivo; conditions: for mortality at 0.32 ppm / mortality at 1.6 ppm / mortality at 8 ppm / mortality at 40 ppm: Coptotermes formosanus, 96 h, read-out: Mortality of termites after four days
# From the text: Examples of the active compounds according to the present invention • I.1: 1-(6-chloro-3-pyridylmethyl)-2-nitromethylene-imidazolidine • I.2: 3-(6-chloro-3-pyridylmethyl)-2-nitromethylene-thiazolidine • I.3: imidacloprid
# Comparative compounds • A: phoxim • B: chlorpyriphos Preparation of test formulation: • Solvent: 3 parts by weight of xylene • Emulsifier: 1 part by weight of polyoxyethylene-alkylphenyl-ether
# To prepare a suitable formulation of the active compound, 1 part by weight of each of the active compounds was mixed with the above-mentioned amount of the solvent containing the above-mentioned amount of the emulsifier, and the mixture was diluted with water to a predetermined concentration.
# 1 ml of the aqueous solution prepared in the above-mentioned procedure was uniformly applied using a pipette onto a filter paper that was placed in petri dish of 9 cm diameter. Ten head of worker termites (Coptotermes formosanus) were replaced into the petri dish and it was kept in a constant temperature chamber at 25° C.
# After four days, the mortality of the termites was investigated. This test procedure was carried out in duplicate per each concentration of the active compounds under test.
# [3] = system: larvae of Hylotrupes bajulus; conditions: comparative values, Holz als Roh- und Werkstoff 35 (1977) 233-237, table 6; cited from earlier work
# [4] = system: working termites and soldier termites (Coptotermes formosanus); experiment: whole plant or invertebrate; assay type: in vivo; conditions: for Degree of xylophagous damage in the pine tree block (0-5): after three weeks; for mortality at 0.32 ppm / mortality at 1.6 ppm / mortality at 8 ppm / mortality at 40 ppm: Coptotermes formosanus, read-out: Mortality termites after three weeks; for Mortality termites after three weeks: blocks aged four weeks at 40° C.
# Protocol: Small blocks of Japanese redpine tree (2 cm×2 cm×2 cm) were soaked for one minute into the aqueous solution prepared by the similar procedure to Example 8.
# After air-dried, they were kept in a constant temperature chamber at 40° C. for four weeks. Then each of the thus treated blocks was placed in a polymeric cup (10 cm diameter) containing 150 ml of sandy loam of 20% moisture content. Into each of the polymeric cups, 100 head of working termites and 10 head of soldier termites (Coptotermes formosanus) were released. After three weeks, the degree of xylophagous damage in the block and the mortality of the termites were investigated.
# [5] = system: larvae of Hylotrupes bajulus; experiment: Toxic value against larvae of Hylotrupes bajulus, DIN EN 47, impregnated wood samples; assay type: in vivo
# From the text: The toxicity against larvae of Hylotorupes bajulus, using wood samples treated with the active compound I.3 […] to the detailed description of DIN EN 47 (edition 1990, Beuth Verlag GMBH) which is concerned with the European standard method prescribed by the European Committee for standardization concerning wood preservatives, determination of the toxic value against larvae of Hylotrupes bajulus.
# An outline of the method is as follows: (see DIN EN 47 for detail)
# Five wood-samples (50 mm×25 mm×15 mm) which are treated by the active compound beforehand (impregnation treatment in vacuum) are provided and in each specimen, a regular pattern of six holes are bored, and then one head of the larvae is inserted per a hole.
# After four weeks, the specimens are cut up in turn and the number of live/dead of larvae is determined.
# In determination, where a live larvae is identified in a specimen, then the remaining specimens without cutting up are stored for a further eight weeks, and afterword, the number of live/dead larvae is determined.
# [6] = system: Reticulitermes santonensis; experiment: Effectiveness against Reticulitermes santonensis, DIN EN 117, impregnated wood samples; assay type: in vivo; conditions: eight weeks, per wood sample
# Protocol: The toxicity against Reticulitermes santonensis of solutions containing the active compound I.3 in chloroform having the concentrations mentioned in Example 10 was determined according to the detailed description of DIN EN 117 Edition 1981 which is concerned with the European standard method prescribed by the European Committee for standardization concerning wood preservatives, determination of the toxic value against Reticulitermes santonesis.
# An outline of the method is as follows: (see DIN EN 117 for detail)
# The same three wood-samples with impregnation treatment in vacuum as in Example 10 are provided.
# They are exposed to 250 workers, 1 soldier and 1 nymph per batch for eight weeks, and afterword, the number of live/dead larvae is determined.
# The evaluation was made by the following standard:
# * rating values: • 0=no attack • 1=attempted attack • 2=slight attack • 3=average attack • 4=strong attack
# [7] = 0.32 ppm active compound, filter paper, 25° C.
# [8] = 1.6 ppm active compound, filter paper, 25° C.
# [9] = 8 ppm active compound, filter paper, 25° C.
# [10] = 40 ppm active compound, filter paper, 25° C.
# [11] = 4 weeks, impregnating solution 0.00144 %, M-value 10.80 g/m^3 wood
# [12] = 4 weeks, impregnating solution 0.0072 %, M-value 52.85 g/m^3 wood
# [13] = 4 weeks, impregnating solution 0.0144 %, M-value 103.97 g/m^3 wood
# [14] = 12 weeks, impregnating solution 0.000144 % (so in the source), M-value 0.11 g/m^3 wood
# [15] = 12 weeks, impregnating solution 0.000144 %, M-value 1.08 g/m^3 wood
# [16] = 12 weeks, impregnating solution 0.00144 % (remaining three specimens), M-value 10.80 g/m^3 wood
# [17] = 1.44 × 10^−2% (m/m), average absorbed 136.627 g/m^3
# [18] = 1.44 × 10^−3% (m/m), average absorbed 13.463 g/m^3
# [19] = 1.44 × 10^−4% (m/m), average absorbed 1.344 g/m^3
# [20] = 1.44 × 10^−5% (m/m), average absorbed 0.135 g/m^3
# [21] = 7.20 × 10^−3% (m/m), average absorbed 68.211 g/m^3
structure (smiles),measurement,setting,value
"CCOP(=S)(OCC)O/N=C(\C#N)c1ccccc1 [A, 0-(α-cyanobenzylideneamino)0,0-diethylphosphorothioate, reference compound]",toxic value,[1],400 g/m^3
same,mortality at 0.32 ppm,[2]; [7],90%
same,mortality at 1.6 ppm,[2]; [8],100%
same,mortality at 8 ppm,[2]; [9],100%
same,mortality at 40 ppm,[2]; [10],100%
same,toxic value,[3],7-12 g/m^3
same,Degree of xylophagous damage in the pine tree block (0-5),[4]; 0.32 ppm,5
same,Degree of xylophagous damage in the pine tree block (0-5),[4]; 1.6 ppm,5
same,Degree of xylophagous damage in the pine tree block (0-5),[4]; 8 ppm,5
same,Degree of xylophagous damage in the pine tree block (0-5),[4]; 40 ppm,3
same,mortality at 0.32 ppm,[4],0%
same,mortality at 1.6 ppm,[4],0%
same,mortality at 8 ppm,[4],0%
same,mortality at 40 ppm,[4],25%
"CCOP(=S)(OCC)Oc1nc(Cl)c(Cl)cc1Cl [B, 0,0-diethyl-3,5,6-trichloro-2-pyridylphosphorothioate, reference compound]",Mortality of termites after four days,[2]; [7],100%
same,Mortality of termites after four days,[2]; [8],100%
same,Mortality of termites after four days,[2]; [9],100%
same,Mortality of termites after four days,[2]; [10],100%
same,Degree of xylophagous damage in the pine tree block (0-5),[4]; 0.32 ppm,5
same,Mortality termites after three weeks,[4]; 0.32 ppm,0%
same,Degree of xylophagous damage in the pine tree block (0-5),[4]; 1.6 ppm,3
same,Mortality termites after three weeks,[4]; 1.6 ppm,0%
same,Degree of xylophagous damage in the pine tree block (0-5),[4]; 8 ppm,1
same,Mortality termites after three weeks,[4]; 8 ppm,78%
same,Degree of xylophagous damage in the pine tree block (0-5),[4]; 40 ppm,0
same,Mortality termites after three weeks,[4]; 40 ppm,100%
CCC(C)c1ccccc1OC(=O)NC (stereo not drawn) [Bassa (Baycarb)],toxic value,[1],500 g/m^3
CCOP(=S)(OCC)ON=C(C#N)c1ccccc1Cl [Chlorophoxim],toxic value,[1],500 g/m^3
Clc1ccc(C(c2ccc(Cl)cc2)C(Cl)(Cl)Cl)cc1 [DDT],toxic value,[1],>1 500 g/m^3
same,toxic value,[3],5-10 g/m^3
ClC1=C(Cl)[C@]2(Cl)[C@@H]3[C@@H]4C[C@@H]([C@H]5O[C@@H]45)[C@@H]3[C@@]1(Cl)C2(Cl)Cl [Dieldrin],toxic value,[1],50 g/m^3
CCOP(=S)(OCC)Oc1ccc([N+](=O)[O-])cc1 [Ethylparathion],toxic value,[1],200 g/m^3
"O=[N+]([O-])C=C1NCCN1Cc1ccc(Cl)nc1 [I.1, 1-(6-chloro-3-pyridylmethyl)-2-nitromethylene-imidazolidine]",mortality at 0.32 ppm,[2]; [7],100%
same,mortality at 1.6 ppm,[2]; [8],100%
same,mortality at 8 ppm,[2]; [9],100%
same,mortality at 40 ppm,[2]; [10],100%
same,Degree of xylophagous damage in the pine tree block (0-5),[4]; 0.32 ppm,0.5
same,Degree of xylophagous damage in the pine tree block (0-5),[4]; 1.6 ppm,0
same,Degree of xylophagous damage in the pine tree block (0-5),[4]; 8 ppm,0
same,Degree of xylophagous damage in the pine tree block (0-5),[4]; 40 ppm,0
same,mortality at 0.32 ppm,[4],98%
same,mortality at 1.6 ppm,[4],100%
same,mortality at 8 ppm,[4],100%
same,mortality at 40 ppm,[4],100%
"O=[N+]([O-])C=C1SCCN1Cc1ccc(Cl)nc1 [I.2, 3-(6-chloro-3-pyridylmethyl)-2-nitromethylene-thiazolidine]",mortality at 0.32 ppm,[2],100%
same,mortality at 1.6 ppm,[2],100%
same,mortality at 8 ppm,[2],100%
same,mortality at 40 ppm,[2],100%
same,Degree of xylophagous damage in the pine tree block (0-5),[4]; 0.32 ppm,0
same,Degree of xylophagous damage in the pine tree block (0-5),[4]; 1.6 ppm,0
same,Degree of xylophagous damage in the pine tree block (0-5),[4]; 8 ppm,0
same,Degree of xylophagous damage in the pine tree block (0-5),[4]; 40 ppm,0
same,mortality at 0.32 ppm,[4],100%
same,mortality at 1.6 ppm,[4],100%
same,mortality at 8 ppm,[4],100%
same,mortality at 40 ppm,[4],100%
"O=[N+]([O-])N=C1NCCN1Cc1ccc(Cl)nc1 [I.3, 1-(6-chloro-3-pyridylmethyl)-2-nitroimino-imidazolidine]",mortality at 0.32 ppm,[2],100%
same,mortality at 1.6 ppm,[2],100%
same,mortality at 8 ppm,[2],100%
same,mortality at 40 ppm,[2],100%
same,"State of the larvae at the end of the test: dead, no wood digested",[5]; [11],4
same,"State of the larvae at the end of the test: dead, wood digested",[5]; [11],6
same,State of the larvae at the end of the test: living,[5]; [11],1
same,State of the larvae at the end of the test: not found,[5]; [11],1
same,"State of the larvae at the end of the test: dead, no wood digested",[5]; [12],29
same,"State of the larvae at the end of the test: dead, wood digested",[5]; [12],1
same,State of the larvae at the end of the test: living,[5]; [12],0
same,State of the larvae at the end of the test: not found,[5]; [12],0
same,"State of the larvae at the end of the test: dead, no wood digested",[5]; [13],27
same,"State of the larvae at the end of the test: dead, wood digested",[5]; [13],3
same,State of the larvae at the end of the test: living,[5]; [13],0
same,State of the larvae at the end of the test: not found,[5]; [13],0
same,"State of the larvae at the end of the test: dead, no wood digested",[5]; [14],1
same,"State of the larvae at the end of the test: dead, wood digested",[5]; [14],4
same,State of the larvae at the end of the test: living,[5]; [14],23
same,State of the larvae at the end of the test: not found,[5]; [14],2
same,"State of the larvae at the end of the test: dead, no wood digested",[5]; [15],4
same,"State of the larvae at the end of the test: dead, wood digested",[5]; [15],12
same,State of the larvae at the end of the test: living,[5]; [15],11
same,State of the larvae at the end of the test: not found,[5]; [15],3
same,"State of the larvae at the end of the test: dead, no wood digested",[5]; [16],6
same,"State of the larvae at the end of the test: dead, wood digested",[5]; [16],11
same,State of the larvae at the end of the test: living,[5]; [16],0
same,State of the larvae at the end of the test: not found,[5]; [16],1
same,rating,[6]; [17],0
same,surviving workers,[6]; [17],0%
same,rating,[6]; [18],1
same,surviving workers,[6]; [18],0%
same,rating,[6]; [19],1
same,surviving workers,[6]; [19],0%
same,rating,[6]; [20],4
same,surviving workers,[6]; [20],55% and 51% and 58%
same,rating,[6]; [21],0
same,surviving workers,[6]; [21],0%
same,Degree of xylophagous damage in the pine tree block (0-5),[4]; 0.32 ppm,0
same,Degree of xylophagous damage in the pine tree block (0-5),[4]; 1.6 ppm,0
same,Degree of xylophagous damage in the pine tree block (0-5),[4]; 8 ppm,0
same,Degree of xylophagous damage in the pine tree block (0-5),[4]; 40 ppm,0
same,mortality at 0.32 ppm,[4],100%
same,mortality at 1.6 ppm,[4],100%
same,mortality at 8 ppm,[4],100%
same,mortality at 40 ppm,[4],100%
Cl[C@H]1[C@H](Cl)[C@@H](Cl)[C@@H](Cl)[C@H](Cl)[C@H]1Cl [Lindan],toxic value,[1],75 g/m^3
CNC(=O)Oc1ccccc1OC(C)C [Propoxur],toxic value,[1],140 g/m^3
same,toxic value,[3],18-30 g/m^3

# — patent publication US6936624B2, “Agents for preserving technical materials against insects” (Nihon Bayer Agrochem K.K., priority 1991, dated 2005)
